Here are results for two molecules from publication PMC9743092, “Membrane-Active Cyclic Amphiphilic Peptides: Broad-Spectrum Antibacterial Activity Alone and in Combination with Antibiotics” (Journal of Medicinal Chemistry, 2022).

Data set [1] relates to human skin fibroblast cells (HeKa).
For data set [2], the system named is liver (HepaRG) cells.
The subject of data set [3] is normal lung (MRC-5) cells.
For data set [4], the system named is kidney (HEK-293) cells.
Details of data set [5]: method as in PMID 25808204. As to conditions: cited from earlier work.

For the molecule `C[S+](C)[O-]` [DMSO (30%), DMSO], the cell viability in data set [1], in data set [2], in data set [3] and in data set [4] was 7–11% throughout.
Take `N=C(N)NCCC[C@H](N)C(=O)O` [arginine]: the “pKa value of the arginine guanidinium group” value in data set [5] is 13.8 ± 0.1.
